The supplement of paper PMC10307832

What was measured:
Assay in all cases: relative viability (nuclei count vs DMSO), 5 days (fraction); higher = more cells survive
NCI-H460 = system: NCI-H460
Procedure, shortened: (§1)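 Each reported value is a median over duplicate plates. It expresses relative viability: treated-well nuclei count divided by vehicle-well nuclei count. Lung cancer cell lines in 1536-well plates were dosed by pin tool a day after seeding, alone with one drug or with a fixed anchor-drug dose plus five library-drug doses (not always all listed) in √10 steps, and nuclei were counted after 5 days.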

201T = system: 201T
Procedure, shortened: as §1

LCLC-103H = system: LCLC-103H
Procedure, shortened: as §1

NCI-H2347 = system: NCI-H2347
Procedure, shortened: as §1

LC-2-ad = system: LC-2-ad
Procedure, shortened: as §1

NCI-H596 = system: NCI-H596
Procedure, shortened: as §1

HCC-44 = system: HCC-44
Procedure, shortened: as §1

A-427 = system: A-427
Procedure, shortened: as §1

NCI-H1650 = system: NCI-H1650
Procedure, shortened: as §1

LU99A = system: LU99A
Procedure, shortened: as §1

PC-14 = system: PC-14
Procedure, shortened: as §1

COR-L23 = system: COR-L23
Procedure, shortened: as §1

NCI-H1793 = system: NCI-H1793
Procedure, shortened: as §1

NCI-H23 = system: NCI-H23
Procedure, shortened: as §1

SW 900 = system: SW 900
Procedure, shortened: as §1

LK-2 = system: LK-2
Procedure, shortened: as §1

NCI-H2228 = system: NCI-H2228
Procedure, shortened: as §1

H3255 = system: H3255
Procedure, shortened: as §1

SW 1573 = system: SW 1573
Procedure, shortened: as §1

LCLC-97TM1 = system: LCLC-97TM1
Procedure, shortened: as §1

NCI-H727 = system: NCI-H727
Procedure, shortened: as §1

With `Cc1sc2c(c1C)C(c1ccc(Cl)cc1)=N[C@@H](CC(=O)OC(C)(C)C)c1nnc(C)n1-2` [JQ1] + CC(=O)Nc1cccc(-n2c(=O)n(C3CC3)c(=O)c3c(Nc4ccc(I)cc4F)n(C)c(=O)c(C)c32)c1 [Trametinib] (partner 0.02 µM) the relative viability (NCI-H460; first compound 0.04 µM) was 0.129, the relative viability (NCI-H460; first compound 0.1265 µM) was 0.0734 and the relative viability (NCI-H460; first compound 0.4 µM) was 0.0575. For the same compound, the relative viability (NCI-H460; first compound 1.265 µM) was 0.0314, the relative viability (NCI-H460; first compound 4 µM) was 0.0297 and the relative viability (201T; first compound 0.04 µM) was 0.72. It also gave a relative viability (201T; first compound 0.4 µM) of 0.538, a relative viability (201T; first compound 1.265 µM) of 0.505 and a relative viability (201T; first compound 4 µM) of 0.391. The relative viability (LCLC-103H; first compound 0.04 µM) was 0.642, the relative viability (LCLC-103H; first compound 0.1265 µM) was 0.613 and the relative viability (LCLC-103H; first compound 0.4 µM) was 0.534. For the same compound, the relative viability (LCLC-103H; first compound 1.265 µM) was 0.477, the relative viability (LCLC-103H; first compound 4 µM) was 0.426 and the relative viability (NCI-H2347; first compound 0.04 µM) was 0.275. For the same compound, the relative viability (NCI-H2347; first compound 0.1265 µM) was 0.294, the relative viability (NCI-H2347; first compound 0.4 µM) was 0.276 and the relative viability (NCI-H2347; first compound 1.265 µM) was 0.24. For the same compound, the relative viability (NCI-H2347; first compound 4 µM) was 0.258, the relative viability (LC-2-ad; first compound 0.04 µM) was 0.866 and the relative viability (LC-2-ad; first compound 0.1265 µM) was 0.918. It also gave a relative viability (LC-2-ad; first compound 0.4 µM) of 0.708, a relative viability (LC-2-ad; first compound 1.265 µM) of 0.479 and a relative viability (LC-2-ad; first compound 4 µM) of 0.303. For the same compound, the relative viability (NCI-H596; first compound 0.04 µM) was 0.776, the relative viability (NCI-H596; first compound 0.1265 µM) was 0.683 and the relative viability (NCI-H596; first compound 0.4 µM) was 0.442. It also gave a relative viability (NCI-H596; first compound 1.265 µM) of 0.338, a relative viability (NCI-H596; first compound 4 µM) of 0.31 and a relative viability (HCC-44; first compound 0.04 µM) of 1.02. For the same compound, the relative viability (HCC-44; first compound 0.1265 µM) was 1.09, the relative viability (HCC-44; first compound 0.4 µM) was 0.766 and the relative viability (HCC-44; first compound 1.265 µM) was 0.649. It also gave a relative viability (HCC-44; first compound 4 µM) of 0.493, a relative viability (A-427; first compound 0.04 µM) of 0.759 and a relative viability (A-427; first compound 0.1265 µM) of 0.843. For the same compound, the relative viability (A-427; first compound 0.4 µM) was 0.674, the relative viability (A-427; first compound 1.265 µM) was 0.466 and the relative viability (A-427; first compound 4 µM) was 0.52. For the same compound, the relative viability (NCI-H1650; first compound 0.04 µM) was 0.477, the relative viability (NCI-H1650; first compound 0.1265 µM) was 0.425 and the relative viability (NCI-H1650; first compound 0.4 µM) was 0.43. For the same compound, the relative viability (NCI-H1650; first compound 1.265 µM) was 0.18, the relative viability (NCI-H1650; first compound 4 µM) was 0.145 and the relative viability (LU99A; first compound 0.04 µM) was 0.544. For the same compound, the relative viability (LU99A; first compound 0.4 µM) was 0.335, the relative viability (LU99A; first compound 1.265 µM) was 0.209 and the relative viability (LU99A; first compound 4 µM) was 0.194. It also gave a relative viability (PC-14; first compound 0.04 µM) of 0.862, a relative viability (PC-14; first compound 0.1265 µM) of 0.174 and a relative viability (PC-14; first compound 0.4 µM) of 0.515. It also gave a relative viability (PC-14; first compound 1.265 µM) of 0.26, a relative viability (PC-14; first compound 4 µM) of 0.182 and a relative viability (COR-L23; first compound 0.04 µM) of 0.562. The relative viability (COR-L23; first compound 0.1265 µM) was 0.497, the relative viability (COR-L23; first compound 0.4 µM) was 0.55 and the relative viability (COR-L23; first compound 1.265 µM) was 0.342. For the same compound, the relative viability (COR-L23; first compound 4 µM) was 0.29, the relative viability (NCI-H1793; first compound 0.04 µM) was 0.483 and the relative viability (NCI-H1793; first compound 0.1265 µM) was 0.429. It also gave a relative viability (NCI-H1793; first compound 0.4 µM) of 0.595, a relative viability (NCI-H1793; first compound 1.265 µM) of 0.481 and a relative viability (NCI-H1793; first compound 4 µM) of 0.5. It also gave a relative viability (NCI-H23; first compound 0.04 µM) of 0.348, a relative viability (NCI-H23; first compound 0.1265 µM) of 0.268 and a relative viability (NCI-H23; first compound 0.4 µM) of 0.256. For the same compound, the relative viability (NCI-H23; first compound 1.265 µM) was 0.201, the relative viability (NCI-H23; first compound 4 µM) was 0.173 and the relative viability (SW 900; first compound 0.04 µM) was 0.804. It also gave a relative viability (SW 900; first compound 0.1265 µM) of 0.582, a relative viability (SW 900; first compound 0.4 µM) of 0.532 and a relative viability (SW 900; first compound 1.265 µM) of 0.205. For the same compound, the relative viability (SW 900; first compound 4 µM) was 0.204, the relative viability (LK-2; first compound 0.04 µM) was 0.71 and the relative viability (LK-2; first compound 0.1265 µM) was 0.579. For the same compound, the relative viability (LK-2; first compound 0.4 µM) was 0.217, the relative viability (LK-2; first compound 1.265 µM) was 0.163 and the relative viability (LK-2; first compound 4 µM) was 0.218. It also gave a relative viability (NCI-H2228; first compound 0.04 µM) of 0.483, a relative viability (NCI-H2228; first compound 0.1265 µM) of 0.396 and a relative viability (NCI-H2228; first compound 0.4 µM) of 0.424. For the same compound, the relative viability (NCI-H2228; first compound 1.265 µM) was 0.276, the relative viability (NCI-H2228; first compound 4 µM) was 0.181 and the relative viability (H3255; first compound 0.04 µM) was 0.58. For the same compound, the relative viability (H3255; first compound 0.4 µM) was 0.452, the relative viability (H3255; first compound 1.265 µM) was 0.345 and the relative viability (H3255; first compound 4 µM) was 0.322. It also gave a relative viability (SW 1573; first compound 0.04 µM) of 0.422, a relative viability (SW 1573; first compound 0.1265 µM) of 0.357 and a relative viability (SW 1573; first compound 0.4 µM) of 0.277. It also gave a relative viability (SW 1573; first compound 1.265 µM) of 0.189, a relative viability (SW 1573; first compound 4 µM) of 0.187 and a relative viability (LCLC-97TM1; first compound 0.04 µM) of 0.187. The relative viability (LCLC-97TM1; first compound 0.1265 µM) was 0.149, the relative viability (LCLC-97TM1; first compound 0.4 µM) was 0.189 and the relative viability (LCLC-97TM1; first compound 1.265 µM) was 0.102. The relative viability (LCLC-97TM1; first compound 4 µM) was 0.102, the relative viability (NCI-H727; first compound 0.04 µM) was 0.403 and the relative viability (NCI-H727; first compound 0.1265 µM) was 0.421. For the same compound, the relative viability (NCI-H727; first compound 0.4 µM) was 0.381, the relative viability (NCI-H727; first compound 1.265 µM) was 0.365 and the relative viability (NCI-H727; first compound 4 µM) was 0.401.
